The values below come from the Kinase Knowledgebase extract (Sharma et al. 2016).

In experiment [1] the target is EGFR (human) (UniProt P00533). The conditions noted are these: sk-mel-2.
For experiment [2], the target named is EGFR (human) (UniProt P00533). The conditions noted are these: k562.
In experiment [3] the target is EGFR (human) (UniProt P00533). As to conditions: caki-1.
In experiment [4] the target is EGFR (human) (UniProt P00533). As to conditions: ht-29.
The target in experiment [5] is EGFR (human) (UniProt P00533). The conditions noted are these: ccrf-cem leukemia cell.
In experiment [6] the target is EGFR (human) (UniProt P00533). The conditions noted are these: sf-295.
In experiment [7] the target is EGFR (human) (UniProt P00533). As to conditions: mda-mb-435.
In experiment [8] the target is EGFR (human) (UniProt P00533). The conditions noted are these: mcf-7.
Experiment [9] deals with EGFR (human) (UniProt P00533). As to conditions: h460.
For experiment [10], the target named is EGFR (human) (UniProt P00533). As to conditions: rpmi8226.
Experiment [11] addresses EGFR (human) (UniProt P00533). As to conditions: sk-mel-5.
The target of experiment [12] is EGFR (human) (UniProt P00533). As to conditions: delta.
The target of experiment [13] is EGFR (human) (UniProt P00533). As to conditions: u251.
Experiment [14] addresses EGFR (human) (UniProt P00533). As to conditions: hl60tb.
The target of experiment [15] is EGFR (human) (UniProt P00533). The conditions noted are these: a549.
The target in experiment [16] is EGFR (human) (UniProt P00533). As to conditions: hop-92.

Some results are limits rather than exact numbers.

Sequence of EGFR (human) (P00533 whole entry, looked up): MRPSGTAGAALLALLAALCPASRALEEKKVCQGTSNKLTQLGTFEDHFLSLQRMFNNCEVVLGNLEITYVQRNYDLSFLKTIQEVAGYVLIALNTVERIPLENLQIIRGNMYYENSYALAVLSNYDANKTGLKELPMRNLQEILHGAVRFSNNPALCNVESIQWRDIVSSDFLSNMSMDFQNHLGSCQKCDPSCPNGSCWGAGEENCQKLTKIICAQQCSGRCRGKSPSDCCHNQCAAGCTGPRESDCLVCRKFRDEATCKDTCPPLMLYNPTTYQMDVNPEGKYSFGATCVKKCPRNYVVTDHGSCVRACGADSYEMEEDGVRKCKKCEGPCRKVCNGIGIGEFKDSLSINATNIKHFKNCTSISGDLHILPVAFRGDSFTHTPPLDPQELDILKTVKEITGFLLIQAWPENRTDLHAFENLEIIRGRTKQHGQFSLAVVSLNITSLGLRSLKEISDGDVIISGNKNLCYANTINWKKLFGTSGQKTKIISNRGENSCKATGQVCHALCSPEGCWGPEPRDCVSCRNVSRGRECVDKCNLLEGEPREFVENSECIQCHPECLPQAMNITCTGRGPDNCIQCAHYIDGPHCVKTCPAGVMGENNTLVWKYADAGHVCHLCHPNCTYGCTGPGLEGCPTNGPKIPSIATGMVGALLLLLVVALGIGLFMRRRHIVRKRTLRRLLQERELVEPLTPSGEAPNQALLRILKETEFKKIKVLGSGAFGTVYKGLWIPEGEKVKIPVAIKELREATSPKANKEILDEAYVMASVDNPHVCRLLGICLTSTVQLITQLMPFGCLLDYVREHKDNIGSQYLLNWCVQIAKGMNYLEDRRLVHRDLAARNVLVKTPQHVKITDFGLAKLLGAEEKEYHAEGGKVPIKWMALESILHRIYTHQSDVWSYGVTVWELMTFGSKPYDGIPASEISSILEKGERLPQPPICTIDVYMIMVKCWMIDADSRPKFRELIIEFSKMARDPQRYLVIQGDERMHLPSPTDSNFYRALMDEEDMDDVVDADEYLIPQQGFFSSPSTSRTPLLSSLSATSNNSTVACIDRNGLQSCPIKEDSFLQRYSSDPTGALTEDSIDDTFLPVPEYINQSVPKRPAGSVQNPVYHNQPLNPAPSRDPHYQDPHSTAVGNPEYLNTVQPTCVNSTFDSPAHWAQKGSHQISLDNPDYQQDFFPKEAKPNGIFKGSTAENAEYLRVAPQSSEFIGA

The term GI50 denotes the concentration that inhibits growth by half. Low readings indicate more potent growth inhibition, high ones less potent growth inhibition. For `N#CC(C#N)=C(N)/C(C#N)=C/c1ccc([N+](=O)[O-])s1`, the 50% growth inhibitory concentration (GI50) turned out to be 19.5 µM in experiment [1]; 3.89 µM in [2]; 18.2 µM in [3]; 15.8 µM in experiment [4]; 4.17 µM in experiment [5]; 17.4 µM in experiment [6]. The GI50 in experiment [7] was determined as 12.3 µM; in experiment [8], 10.5 µM; in experiment [9], 23.4 µM; in experiment [10] it was 5.01 µM; in [11], 7.58 µM; in experiment [12] it was 4.07 µM. The compound further returned a 50% growth inhibitory concentration (GI50) in experiment [13] of 18.6 µM.

Take `N#CC(C#N)=Cc1csc([N+](=O)[O-])c1`: the concentration for 50% growth inhibition (GI50) in [1] stood at 26.9 µM; in [2], 27.5 µM; in [3], 24.5 µM; in experiment [4], 21.9 µM; in experiment [5], 23.4 µM; in [7], 20.9 µM. Moreover, the 50% growth inhibitory concentration (GI50) in experiment [14] was 42.6 µM; in experiment [8], 41.7 µM; in experiment [9], 54.9 µM; in experiment [10] it was 31.6 µM; in experiment [11], 15.8 µM; in experiment [15], above 100 µM. The results for the GI50 in experiment [16] and in [12] were 30.9 µM and 1.99 µM, respectively.

Regarding `CCOC(=O)/C(C#N)=C/c1ccc([N+](=O)[O-])s1`, the concentration for 50% growth inhibition (GI50) in experiment [1] is 3.31 µM; in [2] it was 1.2 µM; in experiment [3], 2.14 µM; in [4], 2.04 µM; in [5] it was 1.55 µM; in [6], 2.09 µM. In addition, the GI50 in experiment [7] turned out to be 2.34 µM; in experiment [14], 0.28 µM; in [8], 3.09 µM; in experiment [9], 6.92 µM; in experiment [10] it was 2.34 µM; in experiment [11], 1.2 µM. The GI50 in experiment [15] stood at 15.5 µM; in experiment [16], 11.5 µM; in experiment [12] it was 12 µM; in experiment [13], 13.5 µM.
